Here are results for 25 compounds from ChEMBL document CHEMBL1201862, “PubChem BioAssay data set” (2004).

For experiment [1], the target named is T1, High affinity choline transporter 1 (Homo sapiens, UniProt Q9GZV3).
T1 sequence (Q9GZV3 whole entry): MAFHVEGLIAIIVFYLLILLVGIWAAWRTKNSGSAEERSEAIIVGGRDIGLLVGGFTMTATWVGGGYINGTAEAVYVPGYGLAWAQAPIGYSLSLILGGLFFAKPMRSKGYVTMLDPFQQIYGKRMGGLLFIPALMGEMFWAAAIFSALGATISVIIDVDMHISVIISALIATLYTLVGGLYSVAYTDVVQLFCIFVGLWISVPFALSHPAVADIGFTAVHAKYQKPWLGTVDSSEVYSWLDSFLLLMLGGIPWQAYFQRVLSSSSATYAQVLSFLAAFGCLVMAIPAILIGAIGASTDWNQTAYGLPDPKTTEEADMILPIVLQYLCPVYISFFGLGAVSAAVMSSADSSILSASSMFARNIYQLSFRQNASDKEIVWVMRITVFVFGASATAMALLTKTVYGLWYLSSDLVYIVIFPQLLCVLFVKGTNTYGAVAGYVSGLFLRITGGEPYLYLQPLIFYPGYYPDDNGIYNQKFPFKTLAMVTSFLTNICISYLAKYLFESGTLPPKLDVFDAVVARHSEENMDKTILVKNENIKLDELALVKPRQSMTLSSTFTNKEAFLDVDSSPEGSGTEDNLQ
Briefly: CHT inhibitors, dose response, cell-based, 5-point CRC, membrane potential dye (AID 504840). The class given is functional.

The target of a further experiment is Large T antigen (Simian virus 40, UniProt P03070). The class given is functional, Betapolyomavirus macacae.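 Also: Confirmatory-stage PubChem screen for compounds that inhibit SV40 T antigen.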
Experiment [2] deals with T2, Zinc finger protein mex-5 (Caenorhabditis elegans, UniProt Q9XUB2).
T2 sequence (Q9XUB2 whole entry): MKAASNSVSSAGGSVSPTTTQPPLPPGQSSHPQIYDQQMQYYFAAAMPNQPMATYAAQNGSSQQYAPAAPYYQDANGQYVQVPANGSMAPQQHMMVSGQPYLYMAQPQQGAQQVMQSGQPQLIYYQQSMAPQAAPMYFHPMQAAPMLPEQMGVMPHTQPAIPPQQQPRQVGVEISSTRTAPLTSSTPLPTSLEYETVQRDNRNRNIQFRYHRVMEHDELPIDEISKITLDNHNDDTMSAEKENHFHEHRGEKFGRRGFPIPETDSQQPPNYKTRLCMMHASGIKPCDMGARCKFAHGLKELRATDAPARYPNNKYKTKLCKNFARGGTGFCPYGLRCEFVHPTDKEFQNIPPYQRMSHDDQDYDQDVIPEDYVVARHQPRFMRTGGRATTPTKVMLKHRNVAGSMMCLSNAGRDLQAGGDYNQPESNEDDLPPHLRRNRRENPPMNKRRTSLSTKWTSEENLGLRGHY
As to the kind of experiment: MEX-5/TCR-2 RNA interaction inhibitors, dose response, biochemical, C. elegans, fluorescence polarization (AID 1960). On the technique in general: In fluorescence polarisation assays a small probe gives low polarisation when free and higher when bound to something large.

Experiment [3] addresses T3, RNA-binding protein pos-1 (Caenorhabditis elegans, UniProt G5EF15).
T3 sequence (G5EF15 whole entry): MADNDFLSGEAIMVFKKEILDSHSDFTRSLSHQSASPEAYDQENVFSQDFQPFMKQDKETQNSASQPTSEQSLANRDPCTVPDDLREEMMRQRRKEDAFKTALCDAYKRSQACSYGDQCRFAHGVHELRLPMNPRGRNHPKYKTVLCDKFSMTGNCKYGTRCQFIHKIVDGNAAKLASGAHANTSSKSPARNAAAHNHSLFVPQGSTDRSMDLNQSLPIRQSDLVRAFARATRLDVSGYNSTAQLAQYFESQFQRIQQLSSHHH
As to the kind of experiment: inhibitors of POS-1/mex-3 RNA binding, dose response, biochemical, fluorescence polarization (AID 1964).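 Also: purified POS-1 fused to maltose binding protein made in E. coli; potency of compounds blocking POS-1 binding to fluorescent RNA.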

In experiment [4] the target is T4, DNA repair protein RAD52 homolog (Homo sapiens, UniProt P43351).
T4 sequence (P43351 whole entry): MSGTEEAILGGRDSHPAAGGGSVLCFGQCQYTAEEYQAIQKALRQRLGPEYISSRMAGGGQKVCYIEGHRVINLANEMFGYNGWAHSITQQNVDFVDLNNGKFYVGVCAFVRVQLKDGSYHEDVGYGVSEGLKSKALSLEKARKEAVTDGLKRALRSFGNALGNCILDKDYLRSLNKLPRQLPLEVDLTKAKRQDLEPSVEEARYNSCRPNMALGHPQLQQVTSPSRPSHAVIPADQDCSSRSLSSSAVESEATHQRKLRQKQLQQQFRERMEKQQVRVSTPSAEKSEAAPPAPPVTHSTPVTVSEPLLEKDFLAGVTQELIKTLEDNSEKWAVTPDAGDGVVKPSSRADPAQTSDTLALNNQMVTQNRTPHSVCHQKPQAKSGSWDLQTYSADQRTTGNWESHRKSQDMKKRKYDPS
The class given is functional, biochemical.

Experiment [5] deals with T5, Rac GTPase-activating protein 1 (Homo sapiens, UniProt Q9H0H5).
T5 sequence (Q9H0H5 whole entry): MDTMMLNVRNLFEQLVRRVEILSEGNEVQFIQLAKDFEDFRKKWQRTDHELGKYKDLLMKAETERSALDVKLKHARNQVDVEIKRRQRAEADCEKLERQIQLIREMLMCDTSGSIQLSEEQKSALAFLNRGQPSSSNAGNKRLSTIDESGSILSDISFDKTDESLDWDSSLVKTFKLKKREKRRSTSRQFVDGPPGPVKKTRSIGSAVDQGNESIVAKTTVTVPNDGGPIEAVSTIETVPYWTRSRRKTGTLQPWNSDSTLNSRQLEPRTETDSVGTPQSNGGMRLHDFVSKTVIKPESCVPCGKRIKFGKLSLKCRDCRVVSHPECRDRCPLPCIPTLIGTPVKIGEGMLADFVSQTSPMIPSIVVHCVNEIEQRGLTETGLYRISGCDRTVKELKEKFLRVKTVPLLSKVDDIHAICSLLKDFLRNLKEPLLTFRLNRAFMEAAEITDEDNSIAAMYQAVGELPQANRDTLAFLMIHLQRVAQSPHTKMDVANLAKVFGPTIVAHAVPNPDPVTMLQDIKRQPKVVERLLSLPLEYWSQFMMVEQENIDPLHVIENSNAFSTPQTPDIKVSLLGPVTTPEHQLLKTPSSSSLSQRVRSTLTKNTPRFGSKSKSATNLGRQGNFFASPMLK
Briefly: MgcRacGAP GTPase-activating activity inhibitors, confirmation, biochemical, ADP Hunter fluorescence, primary and confirmatory (AID 624330). The class given is functional.

The target in experiment [6] is T6, Carboxy-terminal domain RNA polymerase II polypeptide A small phosphatase 1 (Homo sapiens, UniProt Q9GZU7).
T6 sequence (Q9GZU7 whole entry): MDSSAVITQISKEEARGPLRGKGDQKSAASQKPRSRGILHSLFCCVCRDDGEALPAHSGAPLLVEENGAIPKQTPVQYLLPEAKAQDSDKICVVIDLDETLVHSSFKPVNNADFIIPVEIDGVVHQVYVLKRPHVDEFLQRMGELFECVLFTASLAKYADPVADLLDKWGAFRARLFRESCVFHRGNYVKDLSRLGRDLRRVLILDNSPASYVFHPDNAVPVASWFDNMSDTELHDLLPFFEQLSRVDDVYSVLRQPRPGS
As to the kind of experiment: inhibitors of CTDSP1, concentration-response testing, biochemical assay, absorbance-based, actives from ultra-high-throughput screening (AID 540297). The class given is functional.

Experiment [7] concerns the target Heat shock protein HSP 90-alpha (Homo sapiens, UniProt P07900). The class given is functional, organism-based.
In experiment [8] the target is Induced myeloid leukemia cell differentiation protein Mcl-1 (Homo sapiens, UniProt Q07820). The class given is functional.
Experiment [9] is described as follows: Luminescence Cell-Based Dose Retest to Confirm Inhibitors of Cancer Stem Cells. [Related pubchem assays (depositor defined):AID2717, AID2721]. The class given is functional. The conditions noted are these: Homo sapiens.
Experiment [10] can be described thus: control 3'UTR Renilla luciferase suppression, dose response, counter-screen for Shn3 inhibitor project, cell-based, Clone20-Shn3RL, cherry-picked (AID 624133). The class given is functional. Background: Counterscreens check selectivity or assay interference.
The nature of experiment [11]: Shn3 3'UTR reporter inhibitors, dose response, cell-based, Clone20 osteoblasts, firefly luciferase, cherry-picked (AID 624132).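 Also: firefly luciferase luminescence from reporter carrying the Shn3 3'UTR in osteoblasts.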 The class given is functional.
Experiment [12] concerns the target FAD-linked sulfhydryl oxidase ALR (Homo sapiens, UniProt P55789). As to the kind of experiment: inhibitors of human ALR sulfhydryl oxidase, dose response, biochemical, H2O2 detection, luminescence, cherry-pick (AID 493248).
The target of a further experiment is T7, Streptokinase A (Streptococcus pyogenes serotype M1, UniProt P10520).
T7 sequence (P10520 whole entry): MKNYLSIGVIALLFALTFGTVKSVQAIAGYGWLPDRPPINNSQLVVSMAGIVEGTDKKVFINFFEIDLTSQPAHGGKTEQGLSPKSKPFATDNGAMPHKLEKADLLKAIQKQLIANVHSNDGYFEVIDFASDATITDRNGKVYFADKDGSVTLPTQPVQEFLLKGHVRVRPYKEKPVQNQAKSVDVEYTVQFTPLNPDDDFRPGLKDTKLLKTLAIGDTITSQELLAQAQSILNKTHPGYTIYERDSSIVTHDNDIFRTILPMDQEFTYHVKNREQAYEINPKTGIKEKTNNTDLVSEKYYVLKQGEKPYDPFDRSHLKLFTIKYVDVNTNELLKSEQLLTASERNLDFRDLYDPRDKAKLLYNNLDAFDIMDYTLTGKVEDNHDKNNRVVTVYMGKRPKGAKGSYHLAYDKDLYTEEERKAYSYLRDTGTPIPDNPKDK
As to the kind of experiment: S. pyogenes streptokinase expression inhibitors, potency, dose response, plasminogen activation absorbance, OD405 (AID 1914).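 Also: secreted streptokinase activity via plasminogen activation per viability signal from cell pellet.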 The class given is functional, Streptococcus pyogenes M1 GAS.

As a reminder, the IC50 is the concentration that gives 50% inhibition. The EC50 is the concentration giving half of the maximal effect. The AC50 is the concentration giving half of the maximal activity seen.

Calls of active or inactive are those of the source.

Chain of FAD-linked sulfhydryl oxidase ALR (P55789 whole entry): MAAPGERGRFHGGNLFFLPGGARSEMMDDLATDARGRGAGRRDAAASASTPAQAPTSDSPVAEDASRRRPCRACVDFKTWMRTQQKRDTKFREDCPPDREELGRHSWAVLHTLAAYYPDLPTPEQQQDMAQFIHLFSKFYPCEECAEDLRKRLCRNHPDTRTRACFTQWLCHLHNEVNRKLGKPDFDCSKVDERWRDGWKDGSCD
Chain of Large T antigen (P03070 whole entry): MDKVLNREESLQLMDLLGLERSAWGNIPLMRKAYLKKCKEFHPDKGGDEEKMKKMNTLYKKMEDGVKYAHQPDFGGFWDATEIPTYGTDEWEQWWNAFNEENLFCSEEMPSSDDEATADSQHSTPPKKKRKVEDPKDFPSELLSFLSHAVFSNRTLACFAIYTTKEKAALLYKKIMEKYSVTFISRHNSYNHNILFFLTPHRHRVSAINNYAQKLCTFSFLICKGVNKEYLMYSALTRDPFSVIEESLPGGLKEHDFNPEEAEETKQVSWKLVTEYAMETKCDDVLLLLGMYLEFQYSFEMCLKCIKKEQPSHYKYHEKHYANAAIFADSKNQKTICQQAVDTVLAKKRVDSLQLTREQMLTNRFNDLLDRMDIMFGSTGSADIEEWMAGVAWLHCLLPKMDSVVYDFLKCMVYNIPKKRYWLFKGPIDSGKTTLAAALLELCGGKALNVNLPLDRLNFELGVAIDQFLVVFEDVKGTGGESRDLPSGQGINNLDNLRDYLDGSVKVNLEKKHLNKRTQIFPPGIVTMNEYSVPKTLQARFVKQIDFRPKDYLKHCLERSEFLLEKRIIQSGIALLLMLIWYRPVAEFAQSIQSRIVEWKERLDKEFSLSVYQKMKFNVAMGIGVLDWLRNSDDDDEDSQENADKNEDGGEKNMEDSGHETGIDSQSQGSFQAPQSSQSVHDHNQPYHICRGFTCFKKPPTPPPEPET
Chain of Induced myeloid leukemia cell differentiation protein Mcl-1 (Q07820 whole entry): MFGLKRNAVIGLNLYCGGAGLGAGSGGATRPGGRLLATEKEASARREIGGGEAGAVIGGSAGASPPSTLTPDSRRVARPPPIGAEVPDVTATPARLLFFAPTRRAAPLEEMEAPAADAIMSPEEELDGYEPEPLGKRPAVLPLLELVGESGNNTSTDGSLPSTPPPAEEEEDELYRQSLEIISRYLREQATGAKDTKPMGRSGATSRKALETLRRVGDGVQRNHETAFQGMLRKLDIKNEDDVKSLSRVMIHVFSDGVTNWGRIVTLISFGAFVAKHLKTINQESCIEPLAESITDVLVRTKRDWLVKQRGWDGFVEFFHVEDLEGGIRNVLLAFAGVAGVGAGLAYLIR

Consider `S=C(NCC1CCCO1)Nc1cc(Cl)c(Cl)cc1Cl` (stereo not given), for which the IC50 in experiment [1] was 14.5 µM (active).
The same measure, in the same setting: the result for `C=C(C)CSc1nnc(CCCCCNC(=O)OC(C)(C)C)o1` reads 6.92 µM (active).
Regarding `CSc1nc(Cl)cc(Nc2ccc(O)cc2)n1`, the half-maximal inhibitory concentration (IC50) at Large T antigen was 17.8 µM (active).
Regarding `COc1ccc(C2=CC3=C(Br)C(=O)C(C)(OC(=O)c4ccc(Cl)nc4)C(=O)C3=CO2)cc1` (stereo not given), on Large T antigen, the IC50 was 56.7 µM (active). The EC50 in experiment [2] and in [3] was > 300 µM (not active) each time.
With `c1ccc(CCNc2c3c(nc4ncnn24)CCC3)cc1`, the IC50 in experiment [1] is 10.1 µM (active).
`Nc1ccc2c(c1)-c1ccccc1S(=O)(=O)N2`: the concentration for half-maximal inhibition (IC50) on Large T antigen was 3.99 µM (active). Moreover, the EC50 in experiment [2] was 12.2 µM (active); in [3], > 300 µM (not active).
As to `CN1CCN(CCCCOc2ccccc2C=O)CC1`, the AC50 in experiment [4] was 15.8 µM (active).
For the compound `O=C(CCn1cnc2ccccc21)N/N=C/c1ccc(O)cc1`, the IC50 was 51.6 µM (active) in experiment [5] and 14.2 µM (active) at Large T antigen.
The matching figures for `CC1(C)CC(=O)C(/C=N/c2ccc(O)cc2)=C(O)C1`: 17 µM (active) and 5.53 µM (active).
As to `Cc1ccc(C(=O)O)cc1NC(=S)NC(=O)c1ccc(COc2ccccc2)cc1`, the IC50 in experiment [1] is 15.5 µM (active); in experiment [6] it was 6.25 µM (active).
`O=C1C=CC(=O)N1c1ccc2ccccc2c1`: in experiment [7], the AC50 was 0.832 µM (active).
Turning to `O=C1NC(=O)N(c2ccccc2)C(=O)/C1=C\c1ccc2c3c(cccc13)CC2`, the half-maximal inhibitory concentration (IC50) at Large T antigen is 68.4 µM (active); in experiment [8], 5.04 µM (active). In addition, the concentration giving a half-maximal response (EC50) in [2] and in experiment [3] was > 300 µM (not active) in each case.
For `O=C(CC(n1cncn1)C(Cl)(Cl)Cl)c1ccc([N+](=O)[O-])cc1` (stereo not given), in experiment [7], the AC50 was 4.15 µM (active).
Regarding `COc1cc(C#Cc2c(-c3cncn3C)n(C)c3ccc(-c4ccc(OC)nc4)cc23)cc(OC)c1`, the AC50 in [9] is 4.95 µM (active); in [7] it was 5.5 µM (active); in experiment [10] it was 21.2 µM (active); in [11] it was 20.5 µM (active).
Consider `CC1CCCCC12NC(=O)N(CC(=O)Nc1ccc(S(=O)(=O)Nc3ncccn3)cc1)C2=O` (stereo not given), for which the AC50 in [12] was 6.47 µM (active).
On to `COc1ccc(C(=O)NNS(=O)(=O)c2ccc(OC)cc2)cc1`, for which the AC50 in experiment [12] was 12.7 µM (active).
For `CC(NC(=O)C1CC1)C(c1cccs1)N1CCN(c2ccccc2)CC1` (stereo not given), the AC50 in [12] was 0.362 µM (active).
Still for that read-out and setting: with `CC[C@@H](C)[C@H](NC(=O)Cc1c(C)c2cc3c(C)coc3c(C)c2oc1=O)C(=O)O` the figure was 2.39 µM (active).
As to `Cc1ccc(-c2csc(NC(=O)c3cccc(C)c3)c2C(=O)O)cc1`, the 50% inhibitory concentration (IC50) in experiment [1] is 11.8 µM (active).
Take `N=c1sccn1CC(=O)Nc1ccc(SC(F)F)cc1`: in experiment [12], the half-maximal activity concentration (AC50) was 1.68 µM (active).
In the case of `COc1cc(C(=O)NC2CC(C)(C)CC(C)(C)C2)ccc1OC1CCN(C(C)=O)CC1`, the IC50 in experiment [1] is 13.8 µM (active).
On the same count and under the same terms, the result for `CCOC(=O)c1sc(NC(=O)CCN2C(=O)c3cccc([N+](=O)[O-])c3C2=O)c(C(=O)OCC)c1C` reads 5.98 µM (active).
Turning to `CCOC(=O)c1[n-]c2ccccc2c1[N+]#N`, the EC50 on Streptokinase A is > 150 µM (not active). In [7], the concentration at half-maximal activity (AC50) is 0.444 µM (active).
As to `COc1cc(-c2cnc3c(NC=O)cc(-c4ccc(N5CCN(C)CC5)cc4)cn23)cc(OC)c1OC`, the AC50 in [4] was 4.54 µM (active).
With `CN(C)c1ccc(NC(=O)Cn2ncn3c(cc4ccccc43)c2=O)cc1`, the IC50 is 29.6 µM (active) on Large T antigen and 3.14 µM (active) in experiment [8].
